Test results published in article PMC11528044 (Nature Communications, 2024).

Legend:
[1] = tested on: CYP51; conditions: 50 μM substrate, TbCPR, NADPH, pH 6.2, 37 °C
[2] = tested on: CYP5122A1; conditions: 50 μM substrate, TbCPR, NADPH, pH 6.2, 37 °C
[3] = biological target: L. donovani CYP51 (Leishmania donovani, UniProt A0A3S7WRS7); test: UV-Vis difference binding spectra of ligands with purified recombinant CYP51
[4] = biological target: T1, L. donovani CYP5122A1 (Leishmania donovani, UniProt A0A3S7X0B6); test: UV-Vis difference binding spectra of ligands with purified recombinant CYP5122A1
T1 sequence (A0A3S7X0B6 61-592): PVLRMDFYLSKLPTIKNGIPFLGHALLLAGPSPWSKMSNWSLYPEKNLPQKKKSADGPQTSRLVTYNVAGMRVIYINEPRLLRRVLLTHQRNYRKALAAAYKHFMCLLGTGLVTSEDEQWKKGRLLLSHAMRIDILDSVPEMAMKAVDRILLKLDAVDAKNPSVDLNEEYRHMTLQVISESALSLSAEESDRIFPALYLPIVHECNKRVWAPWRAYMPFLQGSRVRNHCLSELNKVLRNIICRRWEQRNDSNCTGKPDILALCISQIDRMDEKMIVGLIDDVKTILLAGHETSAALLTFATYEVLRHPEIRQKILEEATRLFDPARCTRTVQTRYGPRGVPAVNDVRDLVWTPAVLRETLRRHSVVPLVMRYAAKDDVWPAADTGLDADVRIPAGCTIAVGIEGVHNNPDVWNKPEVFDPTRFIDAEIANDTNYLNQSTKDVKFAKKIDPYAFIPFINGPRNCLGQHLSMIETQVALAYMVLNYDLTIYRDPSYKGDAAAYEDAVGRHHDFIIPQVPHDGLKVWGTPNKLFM

[5] = tested on: L. donovani LV82 promastigote cultures; test: Microscopic counts of LV82 promastigote cultures; assay type: cell-based, Leishmania donovani; conditions: LV82 promastigotes, cell counts daily for three days
[6] = biological target: T2, LdCYP51 (Leishmania donovani, UniProt A0A3S7WRS7); test: biochemical
[7] = biological target: T3, LdCYP5122A1 (Leishmania donovani, UniProt A0A3S7X0B6); test: biochemical
T3 sequence (A0A3S7X0B6 61-592): T1 sequence (A0A3S7X0B6 61-592)

[8] = tested on: L. donovani LV82 promastigotes; test: microbe, parasite or virus in culture; conditions: Leishmania donovani, 72 h, read-out: EC50 (L. donovani)
[9] = biological target: T3, LdCYP5122A1
[10] = tested on: sterol profile of LV82 promastigotes; test: LC-MS/MS sterol analysis of inhibitor-treated LV82 promastigotes; assay type: cell-based, Leishmania donovani; conditions: 20 μM clotrimazole vs. DMSO, 24 hr
[11] = tested on: L. donovani strain 1S2D promastigotes (Ld1S WT and CYP5122A1 mutants); conditions: promastigote growth, 48 hours
[12] = tested on: intracellular L. major and L. amazonensis; conditions: cited from earlier work
[13] = tested on: multiple strains of L. donovani and L. infantum promastigotes; conditions: 1 μg/mL; cited from earlier work
[14] = biological target: T2, LdCYP51; conditions: 100 μM

Chain of L. donovani CYP51 (A0A3S7WRS7 32-480): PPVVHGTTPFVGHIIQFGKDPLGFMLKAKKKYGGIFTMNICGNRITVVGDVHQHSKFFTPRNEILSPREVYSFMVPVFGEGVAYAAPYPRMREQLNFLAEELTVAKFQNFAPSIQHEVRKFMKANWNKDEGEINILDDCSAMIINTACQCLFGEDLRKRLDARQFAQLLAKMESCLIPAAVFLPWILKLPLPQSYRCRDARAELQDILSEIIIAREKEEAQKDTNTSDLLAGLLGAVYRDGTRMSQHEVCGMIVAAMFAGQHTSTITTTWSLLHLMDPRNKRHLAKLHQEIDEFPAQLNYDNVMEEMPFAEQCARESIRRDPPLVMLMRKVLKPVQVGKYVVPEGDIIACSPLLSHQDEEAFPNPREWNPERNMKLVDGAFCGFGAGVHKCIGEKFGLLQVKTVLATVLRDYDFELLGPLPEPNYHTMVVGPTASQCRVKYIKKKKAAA
T2 sequence (A0A3S7WRS7 32-480): as above

Compound | Binding mode with CYP51 (difference binding spectrum) [3] | Binding mode with CYP5122A1 (difference binding spectrum) [4] | EC50 [8] | SI (selectivity index) = IC50 against LdCYP5122A1/IC50 against LdCYP51 [9] | IC50 [6] | IC50 [7] | further results
CC(C)=CCC[C@@H](C)[C@H]1CC[C@@]2(C)C3=C(CC[C@]12C)[C@@]1(C)CC[C@H](O)[C@@H](C)[C@@H]1CC3 [4,14-DMZ, 4α,14α-Dimethylzymosterol] | typical type I binding | type I binding | – | – | – | – | Oxidation by reconstituted CYP51 [1]: C14-demethylation; Oxidation by reconstituted CYP5122A1 [2]: metabolized by this enzyme
CC(C)=CCC[C@@H](C)[C@H]1CC[C@H]2C3=CC=C4C[C@@H](O)CC[C@]4(C)[C@H]3CC[C@]12C [7-Dehydrodesmosterol] | atypical difference binding spectrum | did not induce any appreciable change | – | – | – | – | Oxidation by reconstituted CYP51 [1]: oxidized by CYP51 to form hydroxylated metabolites; Oxidation by reconstituted CYP5122A1 [2]: No oxidation metabolite formation
C[C@@H]1[C@H](O)[C@@H](C)/C=C/C=C/C=C/C=C/C=C/C=C/C=C/[C@H](O[C@@H]2O[C@H](C)[C@@H](O)[C@H](N)[C@@H]2O)C[C@@H]2O[C@](O)(C[C@@H](O)C[C@@H](O)[C@H](O)CC[C@@H](O)C[C@@H](O)CC(=O)O[C@H]1C)C[C@H](O)[C@H]2C(=O)O [Amphotericin B] | – | – | 0.14 ± 0.01 µM | – | – | – | Leishmanicidal vs. leishmanistatic effect [5]: leishmanicidal effect; inhibition at 10 µM ([6]; read-out: % inhibition of LdCYP51 at 10 μM): < 25%; inhibition at 10 µM ([7]; read-out: % inhibition of LdCYP5122A1 at 10 μM): < 25%
c1ccc(-c2ccc(C(c3ccccc3)n3ccnc3)cc2)cc1 (stereo not shown) [Bifonazole] | – | – | 12 ± 1 µM | 5.7 | 0.057 ± 0.008 µM | 0.33 ± 0.07 µM | –
Clc1ccc(CCC(Cn2ccnc2)Sc2c(Cl)cccc2Cl)cc1 (stereo not shown) [Butoconazole] | – | – | 1.9 ± 0.4 µM | 4.4 | 0.073 ± 0.008 µM | 0.32 ± 0.07 µM | Leishmanicidal vs. leishmanistatic effect ([5]; listed as butaconazole): leishmanistatic effect
Clc1ccccc1C(c1ccccc1)(c1ccccc1)n1ccnc1 [Clotrimazole] | type II binding | type II binding | – | – | 0.068 ± 0.004 µM | 0.26 ± 0.08 µM | 4,14-Dimethylzymosterol level normalized to DMSO-treated parasites [10]: 43 ± 18; 4CH2OH-LS level normalized to DMSO-treated parasites [10]: 2.3 ± 0.5; 5-Dehydroepisterol level normalized to DMSO-treated parasites [10]: 0.20 ± 0.04; 7-Dehydrodesmosterol level normalized to DMSO-treated parasites [10]: 0^d,**; 14-Methylfecosterol level normalized to DMSO-treated parasites [10]: Accumulated^a,***; 14-Methylzymosterol level normalized to DMSO-treated parasites [10]: 2.3 ± 0.4; Cholesterol (exogenous) level normalized to DMSO-treated parasites [10]: 1.1 ± 0.2; Ergosta-5,7-dienol level normalized to DMSO-treated parasites [10]: 0.79 ± 0.26; Ergostatetraenol level normalized to DMSO-treated parasites [10]: 0 ^d,**; Ergosterol level normalized to DMSO-treated parasites [10]: 0.26 ± 0.07; FF-MAS level normalized to DMSO-treated parasites [10]: Not detected; Lanosterol level normalized to DMSO-treated parasites [10]: 2.7 ± 0.9; T-MAS level normalized to DMSO-treated parasites [10]: Not detected; Zymosterol level normalized to DMSO-treated parasites ([10]; not separated from cholesta-7,24-dienol): 0.018 ± 0.006; 4-Methylzymosterol level normalized to DMSO-treated parasites ([10]; not separated from episterol and fecosterol): 0.025 ± 0.013; Cholesta-7,24-dienol level normalized to DMSO-treated parasites ([10]; not separated from zymosterol): 0.018 ± 0.006; Sensitivity of CYP5122A1 mutants compared with Ld1S WT [11]: no significant differences; Growth inhibition of intracellular L. major and L. amazonensis [12]: strongly inhibited the growth
Clc1ccc(COC(Cn2ccnc2)c2ccc(Cl)cc2Cl)cc1 (stereo not shown) [Econazole] | – | – | – | – | 0.046 ± 0.004 µM | 0.47 ± 0.13 µM | –
C=C1CCN([C@H](C)[C@](O)(Cn2cncn2)c2ccc(F)cc2F)CC1 [Efinaconazole] | – | – | 15 ± 1 µM | 92 | 0.068 ± 0.002 µM | 6.2 ± 1.7 µM | –
CC(C)=CCC[C@@H](C)[C@H]1CC=C2C3=C(CC[C@@]21C)[C@@]1(C)CC[C@H](O)C(C)(C)[C@@H]1CC3 [FF-MAS, 14-demethyl-14-dehydrolanosterol] | did not elicit any change | type I binding | – | – | – | – | Oxidation by reconstituted CYP51 [1]: no oxidation metabolites were detected; Oxidation by reconstituted CYP5122A1 [2]: metabolized by this enzyme
C[C@@H](c1nc(-c2ccc(C#N)cc2)cs1)[C@](O)(Cn1cncn1)c1cc(F)ccc1F [Isavuconazole] | – | – | 12 µM | 60 | 0.043 ± 0.007 µM | 2.6 ± 0.7 µM | –
Clc1ccc(C(Cn2ccnc2)OCc2c(Cl)cccc2Cl)c(Cl)c1 (stereo not shown) [Isoconazole] | – | – | 6.2 ± 0.5 µM | – | – | – | –
CCC(C)n1ncn(-c2ccc(N3CCN(c4ccc(OCC5COC(Cn6cncn6)(c6ccc(Cl)cc6Cl)O5)cc4)CC3)cc2)c1=O (stereo not shown) [Itraconazole] | – | – | 6 ± 1.1 µM | 43 | 0.049 ± 0.009 µM | 2.1 ± 0.4 µM | Growth compared with control [13]: < 20%
CC(=O)N1CCN(c2ccc(OCC3COC(Cn4ccnc4)(c4ccc(Cl)cc4Cl)O3)cc2)CC1 (stereo not shown) [Ketoconazole] | – | – | 22 ± 6 µM | 8.7 | – | 0.42 ± 0.05 µM | Growth compared with control [13]: < 20%
CC(C)=CCC[C@@H](C)[C@H]1CC[C@@]2(C)C3=C(CC[C@]12C)[C@@]1(C)CC[C@H](O)C(C)(C)[C@@H]1CC3 [Lanosterol] | typical type I binding | type I binding | – | – | – | – | Oxidation by reconstituted CYP51 [1]: C14-demethylation; Oxidation by reconstituted CYP5122A1 [2]: metabolized by this enzyme
Clc1ccc(COC(Cn2ccnc2)c2ccc(Cl)cc2Cl)c(Cl)c1 (stereo not shown) [Miconazole] | – | – | – | – | 0.057 ± 0.003 µM | 1.1 ± 0.2 µM | Growth inhibition of intracellular L. major and L. amazonensis [12]: strongly inhibited the growth
N=C(N)c1ccc(OCCCCCOc2ccc(C(=N)N)cc2)cc1 [Pentamidine] | – | – | 14 ± 1 µM | – | – | – | Inhibition of LdCYP51 at 100 μM [14]: No inhibition at 100 μM; Inhibition of LdCYP5122A1 at 100 μM ([9]; 100 μM): No inhibition at 100 μM
C[C@@H](c1nc(-c2ccc(C#N)cc2)cs1)[C@](O)(Cn1cncn1)c1ccc(F)cc1F [Ravuconazole] | – | – | 12 ± 2 µM | 248 | 0.049 ± 0.008 µM | 12 ± 4 µM | –
Clc1ccc(C(Cn2ccnc2)OCc2csc3c(Cl)cccc23)c(Cl)c1 (stereo not shown) [Sertaconazole] | – | – | 7.1 ± 0.5 µM | 17 | 0.064 ± 0.007 µM | 1.1 ± 0.2 µM | –
CC(C)=CCC[C@@H](C)[C@H]1CC[C@H]2C3=C(CC[C@]12C)[C@@]1(C)CC[C@H](O)C(C)(C)C1CC3 (stereo partly drawn) [T-MAS, 4,4-dimethylcholesta-8,24-dien-3β-ol] | did not elicit any change | type I binding | – | – | – | – | Oxidation by reconstituted CYP51 [1]: no oxidation metabolites were detected; Oxidation by reconstituted CYP5122A1 [2]: metabolized by this enzyme
CC(C)N1CCN(c2ccc(OCC3COC(Cn4cncn4)(c4ccc(Cl)cc4Cl)O3)cc2)CC1 (stereo not shown) [Terconazole] | – | – | 13 ± 1 µM | 140 | 0.083 ± 0.009 µM | 12 ± 3 µM | –
CC(C)=CCC[C@@H](C)[C@H]1CC[C@H]2C3=C(CC[C@]12C)[C@@]1(C)CC[C@H](O)C[C@@H]1CC3 [Zymosterol, 5α-Cholesta-8,24-dien-3β-ol] | atypical difference binding spectrum | did not induce any appreciable change | – | – | – | – | Oxidation by reconstituted CYP51 [1]: oxidized by CYP51 to form hydroxylated metabolites; Oxidation by reconstituted CYP5122A1 [2]: No oxidation metabolite formation
